According to patent US12479827B2, “Heteroaromatic carboxamide derivatives as plasma kallikrein inhibitors” (Boehringer Ingelheim International GmbH, priority 2020, dated 2025):

Experiments:
[1] = target: T1, PKK in kaolin activated human platelet poor plasma (Homo sapiens, UniProt P03952); experiment: Inhibition of PKK in kaolin activated human PPP; format: biochemical; conditions: 25-750 μg/mL kaolin, global fit, text b200 calls the values IC90;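 note: readout is the rate of fluorogenic substrate cleavage in rfu per min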
T1 construct: Platelet poor plasma (PPP) obtained from human wholeblood; from tissue
T1 sequence (P03952 391-638 limits assumed): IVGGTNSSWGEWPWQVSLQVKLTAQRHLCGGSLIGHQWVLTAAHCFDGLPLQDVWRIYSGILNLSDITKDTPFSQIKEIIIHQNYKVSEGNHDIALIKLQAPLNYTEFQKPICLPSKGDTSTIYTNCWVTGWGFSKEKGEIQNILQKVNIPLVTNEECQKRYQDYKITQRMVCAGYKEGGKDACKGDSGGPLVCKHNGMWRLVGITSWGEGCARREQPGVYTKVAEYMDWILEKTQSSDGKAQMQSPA
T1 sequence (P03952 20-390 limits assumed): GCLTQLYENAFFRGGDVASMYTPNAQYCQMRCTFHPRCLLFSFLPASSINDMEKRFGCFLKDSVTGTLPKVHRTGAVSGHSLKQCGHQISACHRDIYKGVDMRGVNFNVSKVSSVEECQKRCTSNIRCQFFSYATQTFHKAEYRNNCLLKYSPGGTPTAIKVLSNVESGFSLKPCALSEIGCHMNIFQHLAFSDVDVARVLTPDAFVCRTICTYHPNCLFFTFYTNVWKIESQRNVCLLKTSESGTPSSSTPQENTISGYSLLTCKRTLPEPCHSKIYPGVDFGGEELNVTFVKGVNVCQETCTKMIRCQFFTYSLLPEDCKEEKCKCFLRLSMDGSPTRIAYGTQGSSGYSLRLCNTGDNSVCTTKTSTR
Experimental: Platelet poor plasma (PPP) obtained from human wholeblood, anticoagulated with Na-Citrate, is incubated with various concentrations of the test compound together with either 25, 75, 250, or 750 μg/mL kaolin in assay buffer for 20 min at 37° C. such that for each kaolin dose used a concentration response is obtained for the test compound.

Human PKK = target: T2, Human PKK (Homo sapiens, UniProt P03952); experiment: Inhibition of PKK using an endpoint assay (human PKK); format: biochemical; conditions: fluorogenic substrate H-Pro-Phe-Arg-AMC, 1 h room temperature, method names human or rat PKK, table does not say which
T2 construct: purchased Enzyme Research Laboratories
T2 sequence (P03952 20-390 limits assumed): as above
T2 sequence (P03952 391-638 limits assumed): as the sequence (P03952 391-638 limits assumed) above
Procedure, shortened: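 Human PKK inhibition measured in 100 mM Tris, 150 mM NaCl, pH 7.8, 0.1% BSA, 0.05% Tween20, 1% DMSO. Endpoint format: reaction stopped with PPACK II at 1 μM final, fluorescence read at 355 nm excitation/460 nm emission.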

Row | Compound | IC50 [1] | IC50 (Human PKK)
1 | Cn1cnc2c1CC[C@H]2NC(=O)c1cn(Cc2ccc(N3CC4C(C3)C4(F)F)nc2)cn1 (stereo partly drawn) [Example 63, 1-[(6-{6,6-Difluoro-3-azabicyclo[3.1.0]hexan-3-yl}pyridin-3-yl)methyl]-N-[(4R)-1-methyl-1H,4H,5H,6H-cyclopenta[d]imidazol-4-yl]-1H-imidazole-4-carboxamide] | 203 nM | 3 nM
2 | Cn1cnc2c1CC[C@H]2NC(=O)c1cn(Cc2ccc(N3CC4CC4C3)nc2C(F)F)cn1 (stereo partly drawn) [Example 64, 1-[(6-{3-Azabicyclo[3.1.0]hexan-3-yl}-2-(difluoromethyl)-pyridin-3-yl)methyl]-N-[(4R)-1-methyl-1H,4H,5H,6H-cyclopenta[d]imidazol-4-yl]-1H-imidazole-4-carboxamide] | 221 nM | 0.7 nM
3 | Cn1cnc2c1CC[C@H]2NC(=O)c1cnn(Cc2ccc(N3CC4CC4C3)nc2C(C)(C)C#N)c1 (stereo partly drawn) [Example 65, 1-[(6-{3-Azabicyclo[3.1.0]hexan-3-yl}-2-(1-cyano-1-methylethyl)pyridin-3-yl)methyl]-N-[(4R)-1-methyl-1H,4H,5H,6H-cyclopenta[d]-imidazol-4-yl]-1H-pyrazole-4-carboxamide] | 1230 nM | 1.4 nM
4 | CCCc1nc(N2CC3C(C2)C3(F)F)ccc1Cn1cnc(C(=O)N[C@@H]2CCc3c2ncn3C)c1 (stereo partly drawn) [Example 66, 1-[(6-{6,6-Difluoro-3-azabicyclo[3.1.0]hexan-3-yl}-2-propylpyridin-3-yl)methyl]-N-[(4R)-1-methyl-1H,4H,5H,6H-cyclopenta[d]imidazol-4-yl]-1H-imidazole-4-carboxamide] | 839 nM | 0.7 nM
5 | Cn1cnc2c1CC[C@H]2NC(=O)c1cnn(Cc2ccc(N3CC4C(C3)C4(F)F)nc2C2CCC2)c1 (stereo partly drawn) [Example 67, 1-[(2-Cydobutyl-6-{6,6-difluoro-3-azabicyclo[3.1.0]hexan-3-yl}pyridin-3-yl)methyl]-N-[(4R)-1-methyl-1H,4H,5H,6H-cyclopenta[d]imidazol-4-yl]-1H-pyrazole-4-carboxamide] | 635 nM | 3.1 nM
6 | Cc1nc(N2CC3(CC3)C2)ccc1Cn1cc(C(=O)N[C@@H]2CCc3c2ncn3C)nn1 [Example 68, 1-[(6-{5-Azaspiro[2.3]hexan-5-yl}-2-methylpyridin-3-yl)-methyl]-N-[(4R)-1-methyl-1H,4H,5H,6H-cyclo-penta[d]imidazol-4-yl]-1H-1,2,3-triazole-4-carboxamide] | 637 nM | 1.4 nM
7 | CCCc1nc(N2CC3C(C2)C3(F)F)ccc1Cn1cc(C(=O)N[C@@H]2CCc3c2ncn3C)cn1 (stereo partly drawn) [Example 69, 1-[(6-{6,6-Difluoro-3-azabicyclo[3.1.0]hexan-3-yl}-2-propylpyridin-3-yl)methyl]-N-[(4R)-1-methyl-1H,4H,5H,6H-cyclopenta[d]imidazol-4-yl]-1H-pyrazole-4-carboxamide] | 328 nM | 0.9 nM
8 | Cc1nc(N2CC3CC3C2)ccc1Cn1cc(C(=O)N[C@@H]2CCc3c2ncn3C)c(C#N)n1 (stereo partly drawn) [Example 70, 1-[(6-{3-Azabicyclo[3.1.0]hexan-3-yl}-2-methylpyridin-3-yl)methyl]-3-cyano-N-[(4R)-1-methyl-1H,4H,5H,6H-cyclopenta[d]imidazol-4-yl]-1H-pyrazole-4-carboxamide] | 797 nM | 0.8 nM
9 | Cn1cnc2c1CC[C@H]2NC(=O)c1cnn(Cc2ncc(N3CC4CC4C3)cn2)c1 (stereo partly drawn) [Example 71, 1-[(5-{3-Azabicyclo[3.1.0]hexan-3-yl}pyrimidin-2-yl)methyl]-N-[(4R)-1-methyl-1H,4H,5H,6H-cyclopenta[d]imidazol-4-yl]-1H-pyrazole-4-carboxamide] | 9310 nM | 151 nM
10 | Cn1cnc2c1CC[C@H]2NC(=O)c1cn(Cc2ccc(N3CC4CC4C3)nc2)cn1 (stereo partly drawn) [Example 72, 1-[(6-{3-Azabicyclo[3.1.0]hexan-3-yl}pyridin-3-yl)methyl]-N-[(4R)-1-methyl-1H,4H,5H,6H-cyclopenta[d]imidazol-4-yl]-1H-imidazole-4-carboxamide] | 831 nM | 3.3 nM
11 | Cn1cnc2c1CC[C@H]2NC(=O)c1cnn(Cc2ccc(N3CC4(CC4)C3)nc2)c1 [Example 73, 1-[(6-{5-Azaspiro[2.3]hexan-5-yl}pyridin-3-yl)-methyl]-N-[(4R)-1-methyl-1H,4H,5H,6H-cyclopenta[d]imidazol-4-yl]-1H-pyrazole-4-carboxamide] | 498 nM | 9.6 nM
12 | Cn1cnc2c1CC[C@H]2NC(=O)c1cn(Cc2ccc(N3CC4(CC4)C3)nc2)cn1 [Example 74, 1-[(6-{5-Azaspiro[2.3]hexan-5-yl}pyridin-3-yl)-methyl]-N-[(4R)-1-methyl-1H,4H,5H,6H-cyclopenta[d]imidazol-4-yl]-1H-imidazole-4-carboxamide] | 321 nM | 6.9 nM
13 | CCc1nc(N2CC3C(C2)C3(F)F)ccc1Cn1cnc(C(=O)N[C@@H]2CCc3c2ncn3C)c1 (stereo partly drawn) [Example 76, 1-[(6-{6,6-Difluoro-3-azabicyclo[3.1.0]hexan-3-yl}-2-ethylpyridin-3-yl)methyl]-N-[(4R)-1-methyl-1H,4H,5H,6H-cyclopenta[d]imidazol-4-yl]-1H-imidazole-4-carboxamide] | 270 nM | 0.6 nM
14 | COCc1nc(N2CC3(CC3)C2)ccc1Cn1cnc(C(=O)N[C@@H]2CCc3c2ncn3C)c1 [Example 77, 1-[(6-{5-Azaspiro[2.3]hexan-5-yl}-2-(methoxymethyl)-pyridin-3-yl)methyl]-N-[(4R)-1-methyl-1H,4H,5H,6H-cyclopenta[d]imidazol-4-yl]-1H-imidazole-4-carboxamide] | 197 nM | 3.3 nM
15 | COCc1nc(N2CC3(CC3)C2)ccc1Cn1cc(C(=O)N[C@@H]2CCc3c2ncn3C)cn1 [Example 78, 1-[(6-{5-Azaspiro[2.3]hexan-5-yl}-2-(methoxymethyl)-pyridin-3-yl)methyl]-N-[(4R)-1-methyl-1H,4H,5H,6H-cyclopenta[d]imidazol-4-yl]-1H-pyrazole-4-carboxamide] | 317 nM | 6.8 nM
16 | Cn1cnc2c1CC[C@H]2NC(=O)c1cnn(Cc2ccc(N3CC4(CC4)C3)nc2CO)c1 [Example 79, 1-[(6-{5-Azaspiro[2.3]hexan-5-yl}-2-(hydroxymethyl)-pyridin-3-yl)methyl]-N-[(4R)-1-methyl-1H,4H,5H,6H-cyclopenta[d]imidazol-4-yl]-1H-pyrazole-4-carboxamide] | 249 nM | 5.5 nM
17 | Cn1cnc2c1CC[C@H]2NC(=O)c1cnn(Cc2ccc(N3CC4CC4C3)nc2CC#N)c1 (stereo partly drawn) [Example 81, 1-[(6-{3-Azabicyclo[3.1.0]hexan-3-yl}-2-(cyanomethyl)-pyridin-3-yl)methyl]-N-[(4R)-1-methyl-1H,4H,5H,6H-cyclopenta[d]imidazol-4-yl]-1H-pyrazole-4-carboxamide] | 117 nM | 1.3 nM
18 | C[C@@H](O)c1nc(N2CC3CC3C2)ccc1Cn1cc(C(=O)N[C@@H]2CCc3c2ncn3C)cn1 (stereo partly drawn) [Example 82, 1-[(6-{3-Azabicyclo[3.1.0]hexan-3-yl}-2-[(1R)-1-hydroxy-ethyl]pyridin-3-yl)methyl]-N-[(4R)-1-methyl-1H,4H,5H,6H-cyclopenta[d]imidazol-4-yl]-1H-pyrazole-4-carboxamide] | 117 nM | 0.8 nM
19 | C[C@H](O)c1nc(N2CC3CC3C2)ccc1Cn1cc(C(=O)N[C@@H]2CCc3c2ncn3C)cn1 (stereo partly drawn) [Example 83, 1-[(6-{3-Azabicyclo[3.1.0]hexan-3-yl}-2-[(1S)-1-hydroxy-ethyl]pyridin-3-yl)methyl]-N-[(4R)-1-methyl-1H,4H,5H,6H-cyclopenta[d]imidazol-4-yl]-1H-pyrazole-4-carboxamide] | 594 nM | 1.7 nM
20 | Cn1cnc2c1CC[C@H]2NC(=O)c1cnn(Cc2ccc(N3CC4CC4C3)nc2C(C)(C)O)c1 (stereo partly drawn) [Example 84, 1-[(6-{3-Azabicyclo[3.1.0]hexan-3-yl}-2-(2-hydroxypropan-2-yl)pyridin-3-yl)methyl]-N-[(4R)-1-methyl-1H,4H,5H,6H-cyclopenta[d]imidazol-4-yl]-1H-pyrazole-4-carboxamide] | 209 nM | 0.7 nM
21 | Cn1cnc2c1CC[C@H]2NC(=O)c1cnn(Cc2ccc(N3CC4CC4C3)nc2CCO)c1 (stereo partly drawn) [Example 85, 1-[(6-{3-Azabicyclo[3.1.0]hexan-3-yl}-2-(2-hydroxyethyl)-pyridin-3-yl)methyl]-N-[(4R)-1-methyl-1H,4H,5H,6H-cyclopenta[d]imidazol-4-yl]-1H-pyrazole-4-carboxamide] | 132 nM | 0.8 nM
22 | Cn1cnc2c1CC[C@H]2NC(=O)c1cn(Cc2ccc(N3CC4(CC4)C3)nc2CO)cn1 [Example 87, 1-[(6-{5-Azaspiro[2.3]hexan-5-yl}-2-(hydroxymethyl)-pyridin-3-yl)methyl]-N-[(4R)-1-methyl-1H,4H,5H,6H-cyclopenta[d]imidazol-4-yl]-1H-imidazole-4-carboxamide] | 177 nM | 3.3 nM
23 | CC(O)c1nc(N2CC3CC3C2)ccc1Cn1cc(C(=O)N[C@@H]2CCc3c2ncn3C)cn1 (stereo partly drawn) [Example 88, 1-[(6-{3-Azabicyclo[3.1.0]hexan-3-yl}-2-(1-hydroxyethyl)-pyridin-3-yl)methyl]-N-[(4R)-1-methyl-1H,4H,5H,6H-cyclopenta[d]imidazol-4-yl]-1H-pyrazole-4-carboxamide] | 139 nM | 0.9 nM
24 | Cn1cnc2c1CC[C@H]2NC(=O)c1cnn(Cc2ncc(N3CC4CC4C3)nc2CO)c1 (stereo partly drawn) [Example 89, 1-[(5-{3-Azabicyclo[3.1.0]hexan-3-yl}-3-(hydroxymethyl)-pyrazin-2-yl)methyl]-N-[(4R)-1-methyl-1H,4H,5H,6H-cyclopenta[d]imidazol-4-yl]-1H-pyrazole-4-carboxamide] | 3430 nM | 77.5 nM
